“Also recorded” adds a separate entry of the source.

For one assay, the system named is T47D cell monolayers. The assay can be described thus: Phosphorylation of IGFBP-3 by T47D cell monolayers. It counts as cell-based, human. As for the experimental part:
(§1) Polystyrene tube were coated with streptavidin and blocked with bovine serum albumin, washed in saline and stored at −20° C. until used. Biotinylated IGFBP-3 (500 ng) was added in streptavidin-coated tubes for 2 h on ice. At the end of incubation, excess, unbound IGFBP-3 was removed. Tubes were placed on ice and phosphorylation reaction mixture containing 20 mM Tris buffered saline pH 7.5, 10 mM Mg/ATP, 60 μCi/ml ^32P-ATP was added. Reaction was initiated by the addition of membrane fraction and allowed to proceed for 30 min at 30° C. Reaction was stopped by addition of SDS-PAGE sample buffer, boiled for 7–10 min and analyzed on 11% gel. Subsequently gels were dried and processed for autoradiography. In some cases 2 μU of pure TG2 (Sigma-Aldrich, MO) or histidine-tagged full length human TG2 expressed using baculovirus expression system in insect cells and purified by Ni(II)-nitroacetate agarose chromatography was used to phosphorylate IGFBP-3 in presence or absence of TG2 specific inhibitors. In experiments where cell monolayers were used to phosphorylate IGFBP-3, cells were grown in 24-well culture plate to near confluence and washed with PBS to remove residual media and serum. Phosphorylation was then performed in 100 pI reaction mixture as above, containing 1 μg IGFBP-3 for 10 min at 37° C. At the end of incubation, reaction mixture was aspirated, reaction was stopped by addition of sample buffer and analyzed on 11% gel. In some experiments, cell monolayer were treated with TG2 inhibitor for 30 min prior to the phosphorylation reaction.
We assessed the effect of the TG2 and ROCK2 inhibitors on phosphorylation of IGFBP-3 by cell monolayers. We have previously shown that intact washed cells were able to phosphorylate IGFBP-3 immobilized on polystyrene tubes (Mishra and Murphy, 2003). T47D cell monolayers were incubated for 30 minutes in the presence of various concentrations of cystamine, an inhibitor of TG2. […] After termination of the incubation, the IGFBP-3 was analyzed by SDS-PAGE and autoradiography (FIG. 2A). […]

In the next assay the test system is T47D cell membranes. The assay can be described thus: Phosphorylation of IGFBP-3 by T47D cell membranes. It counts as biochemical, human. The following applies: cystamine 20 μM (10 and 20 μM in FIG. 2C), MDC 200 μM, ROCK2 inhibitor 2 and 5 μM (FIG. 2B, 2C). The method, then:
as §1
We assessed the effect of the TG2 and ROCK2 inhibitors on phosphorylation of IGFBP-3 by cell monolayers. We have previously shown that intact washed cells were able to phosphorylate IGFBP-3 immobilized on polystyrene tubes (Mishra and Murphy, 2003). T47D cell monolayers were incubated for 30 minutes in the presence of various concentrations of cystamine, an inhibitor of TG2. The washed cell monolayers were incubated with IGFBP-3 in the presence of ^32P-ATP for 10 minutes at 37° C. After termination of the incubation, the IGFBP-3 was analyzed by SDS-PAGE and autoradiography (FIG. 2A). […] Similar experiments were undertaken utilizing membrane preparations from both T47D and MCF-7 cells. As reported previously both T47D and MCF-7 cells were able to phosphorylate IGFBP-3. This process was inhibited by cystamine and MDC in both cells lines (FIG. 2B). DMSO the vehicle in which MDC was dissolved had no effect. Since TG2 has been found in association with ROCK2, a Rho-kinase (Singh et al., 2001, EMBO J., 20:2413–2423), and ROCK2 was present in the affinity purified cell membrane fractions, we investigated the effect of the ROCK2 inhibitor, R (+)trans-N-(4-pyridyl)-4-(1aminoethyl)-cyclohexanecarboxamide dihydrochloride. […]

The target in assay [1] is T1, TG2 (Homo sapiens, UniProt P21980).
T1 sequence (P21980 1-687): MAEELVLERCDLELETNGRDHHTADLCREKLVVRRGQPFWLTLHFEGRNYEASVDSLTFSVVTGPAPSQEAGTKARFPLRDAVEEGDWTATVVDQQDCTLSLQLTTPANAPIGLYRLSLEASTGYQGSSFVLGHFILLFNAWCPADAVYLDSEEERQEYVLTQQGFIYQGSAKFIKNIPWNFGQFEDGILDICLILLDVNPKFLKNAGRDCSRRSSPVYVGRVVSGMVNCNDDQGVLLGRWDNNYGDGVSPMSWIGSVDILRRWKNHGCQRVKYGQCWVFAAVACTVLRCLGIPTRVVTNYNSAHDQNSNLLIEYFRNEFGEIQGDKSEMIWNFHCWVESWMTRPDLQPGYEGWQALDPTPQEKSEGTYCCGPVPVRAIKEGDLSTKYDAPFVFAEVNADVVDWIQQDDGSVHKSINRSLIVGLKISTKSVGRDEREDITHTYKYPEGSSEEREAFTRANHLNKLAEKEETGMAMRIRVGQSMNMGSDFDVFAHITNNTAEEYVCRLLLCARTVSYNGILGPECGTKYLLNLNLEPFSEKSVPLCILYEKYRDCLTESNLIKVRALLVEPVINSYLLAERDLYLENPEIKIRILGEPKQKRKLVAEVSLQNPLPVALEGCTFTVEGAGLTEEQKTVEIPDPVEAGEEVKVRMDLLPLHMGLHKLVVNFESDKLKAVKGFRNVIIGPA
Briefly: IGFBP-3 kinase activity of anti-TG2 immunoprecipitates from solubilized membranes. The arrangement: endogenous in cells; host or cells: T47D or MCF-7 cell membranes (anti-TG2 immunoprecipitate on protein A-agarose). It counts as biochemical. The following applies: cystamine 20 μM, ROCK2 inhibitor 5 μM (FIG. 3C). As for the experimental part: To 200 μl of solubilized membranes from T47D of MCF-7 cells, 10 μl of anti-TG2 goat polyclonal antiserum (Upstate Biotechnology, Lake Placid, N.Y.) and incubated for 1 h at 4° C. 20 μl of protein A-agarose (Pierce) was added and further incubated on a rotating device overnight at 4° C. At the end of incubation the pellet was washed four times in ice cold PBS. The supernatant was discarded and the pellet was resuspended in 50 μl of kinase buffer. 10 μl of the resuspended sample was used for phosphorylation of 500 ng of IGFBP-3. The samples were analyzed by SDS-PAGE, autoradiography and immunoblotting with TG2 antiserum.
We next examined the effect of TG2 and ROCK2 antisera on IGFBP-3 kinase activity present in cell membrane preparations. Antiserum against TG2 but not ROCK2 antiserum was able to immunodeplete IGFBP-3 kinase activity from membrane preparations (FIG. 3A). When the immunoprecipitates were analyzed for kinase activity, the precipitates obtained with TG2 antiserum but not those obtained with ROCK2 antiserum had kinase activity. Furthermore, the IGFBP-3 kinase activity present in the immunoprecipitates was inhibited by cystamine but not by the ROCK2 inhibitor.

In assay [2] the target is T1, TG2. Briefly: IGFBP-3 kinase activity of recombinant human TG2. The format is biochemical. The arrangement: histidine-tagged full length human TG2 expressed using baculovirus expression system in insect cells; histidine tag; made in house; host or cells: insect cells (baculovirus expression system). The following applies: for effect on phosphorylation of IGFBP-3 by human recombinant TG2: cystamine 20 μM, MDC 200 μM (FIG. 4A). The method, then:
as §1
Purified guinea pig liver TG2 and human recombinant TG2 both were able to phosphorylate IGFBP-3 (FIG. 4A). This process was inhibited cystamine and MDC. The related binding protein IGFBP-5 was also phosphorylated by TG2 whereas IGFBP-1 was not phosphorylated by TG2 (FIG. 4B). […] Fibronectin, another reported substrate for TG2 (Akimov and Belkin, 2001, J. Cell Sci., 114:2989–3000), was not phosphorylated by this enzyme under the conditions we used to phosphorylate IGFBP-3 (FIG. 4B). […]

The target in assay [3] is T1, TG2. Briefly: Cross-linking activity of recombinant TG2 (polymerization of IGFBP-3). The format is biochemical. The arrangement: histidine-tagged full length human TG2 expressed using baculovirus expression system in insect cells; histidine tag; made in house; host or cells: insect cells (baculovirus expression system). The following applies: recombinant TG2, increasing calcium concentration (FIG. 4C).

A further assay deals with MCF-7 cell membranes. The assay can be described thus: Phosphorylation of IGFBP-3 by MCF-7 cell membranes. The format is biochemical, human. The following applies: cystamine 20 μM, MDC 200 μM (FIG. 2B). The method, then:
as §1, with “In experiments where cell monolayers were used to phosphorylate IGFBP-3, cells were grown in 24-well culture plate to near confluence and washed with PBS to remove residual media and serum. Phosphorylation was then performed in 100 pI reaction mixture as above, containing 1 μg IGFBP-3 for 10 min at 37° C.” left out, “In some experiments, cell monolayer were treated with TG2 inhibitor for 30 min prior to the phosphorylation reaction.” left out
We assessed the effect of the TG2 and ROCK2 inhibitors on phosphorylation of IGFBP-3 by cell monolayers. […] After termination of the incubation, the IGFBP-3 was analyzed by SDS-PAGE and autoradiography (FIG. 2A). […]

The target in a further assay is T2, guinea pig liver TG2 (UniProt P08587).
T2 construct: Both TG2 purified from guinea pig liver and recombinant human TG2 expressed in insect cells were able to phosphorylate IGFBP-3; purchased Sigma-Aldrich, MO; host or cells: guinea pig liver (tissue-purified)
T2 sequence (P08587 1-690): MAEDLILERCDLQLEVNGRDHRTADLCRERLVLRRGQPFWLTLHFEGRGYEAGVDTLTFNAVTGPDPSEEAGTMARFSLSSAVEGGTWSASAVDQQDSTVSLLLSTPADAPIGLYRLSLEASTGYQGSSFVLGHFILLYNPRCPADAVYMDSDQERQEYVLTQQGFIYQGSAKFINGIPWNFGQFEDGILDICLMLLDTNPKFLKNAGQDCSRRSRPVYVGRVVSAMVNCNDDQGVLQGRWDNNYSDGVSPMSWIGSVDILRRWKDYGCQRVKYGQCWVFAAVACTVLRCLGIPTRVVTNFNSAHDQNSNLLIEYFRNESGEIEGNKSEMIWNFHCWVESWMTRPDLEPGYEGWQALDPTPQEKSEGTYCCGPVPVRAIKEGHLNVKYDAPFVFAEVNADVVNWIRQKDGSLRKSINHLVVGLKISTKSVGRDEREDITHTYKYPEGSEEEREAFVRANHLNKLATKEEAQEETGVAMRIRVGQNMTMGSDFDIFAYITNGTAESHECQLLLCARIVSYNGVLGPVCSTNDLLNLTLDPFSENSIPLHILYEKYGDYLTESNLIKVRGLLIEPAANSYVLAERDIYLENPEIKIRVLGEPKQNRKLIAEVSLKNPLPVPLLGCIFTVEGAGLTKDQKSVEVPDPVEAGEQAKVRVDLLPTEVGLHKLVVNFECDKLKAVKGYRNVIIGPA
Briefly: IGFBP-3 kinase activity of purified guinea pig liver TG2. The format is biochemical. The conditions noted are these: cystamine 20 μM, MDC 200 μM (FIG. 4A). The method, then:
as §1, with “Phosphorylation was then performed in 100 pI reaction mixture as above, containing 1 μg IGFBP-3 for 10 min at 37° C.” left out, “In some experiments, cell monolayer were treated with TG2 inhibitor for 30 min prior to the phosphorylation reaction.” left out

Where [4] appears, read: T47D cell monolayers pre-incubated 30 minutes with inhibitor, 32P-ATP, 10 minutes at 37° C., autoradiography (FIG. 2A).

In the case of `C[C@@H](N)[C@H]1CC[C@H](C(=O)Nc2ccncc2)CC1.Cl.Cl` (relative stereo) [ROCK2 inhibitor, R (+)trans-N-(4-pyridyl)-4-(1aminoethyl)-cyclohexanecarboxamide dihydrochloride], in the assay with T47D cell monolayers (breast cancer cell monolayers (FIG. 2A)), the “effect on IGFBP-3 kinase activity of breast cancer cell monolayers” value is reported as “no effect”. Also, the “effect on phosphorylation of IGFBP-3 by T47D cell membranes” value (“effect … by T47D cell membranes” below) in the assay with T47D cell membranes was “no effect”. Moreover, on TG2 [1], the “effect on IGFBP-3 kinase activity present in anti-TG2 immunoprecipitates” value was “not”.
`[Ca+2]` [calcium]: the “effect of increasing calcium concentration on kinase activity of TG2” value on TG2 [2] (recombinant TG2, increasing calcium concentration (FIG. 4C)) is “decrease in the kinase activity; also recorded: inhibited in a concentration dependent fashion”. Also, the “effect of increasing calcium concentration on polymerization of IGFBP-3 (cross-linking activity of TG2)” value at TG2 [3] is “increase in polymerization”.
For `NCCSSCCN` [cystamine], in the assay on T47D cell monolayers (setting [4]), the “concentration at which complete inhibition of IGFBP-3 phosphorylation was apparent” value was found to be 50 µM and the “concentration at which inhibition of IGFBP-3 phosphorylation was seen (as little as)” value was 20 µM. Moreover, the “effect … by T47D cell membranes” value in the assay with T47D cell membranes is given as “inhibited; also recorded: abolished”. In the assay on MCF-7 cell membranes, the “effect on phosphorylation of IGFBP-3 by MCF-7 cell membranes” value is on record as “inhibited”. Besides, on guinea pig liver TG2, the “effect on phosphorylation of IGFBP-3 by purified guinea pig liver TG2” value is “inhibited”. The “effect on IGFBP-3 kinase activity present in anti-TG2 immunoprecipitates” value on TG2 [1] was “inhibited”. Further, at TG2 [2], the “effect on phosphorylation of IGFBP-3 by human recombinant TG2” value was “inhibited”.
Regarding `CN(C)c1cccc2c(S(=O)(=O)NCCCCCN)cccc12` [MDC, monodansyl cadaverine], the “effect … by T47D cell membranes” value in the assay with T47D cell membranes is listed as “inhibited”; with T47D cell membranes (listed as monodansyl cadaverine), “abolished”. The “effect on phosphorylation of IGFBP-3 by MCF-7 cell membranes” value in the assay with MCF-7 cell membranes was “inhibited”. In addition, the “effect on phosphorylation of IGFBP-3 by purified guinea pig liver TG2” value on guinea pig liver TG2 is given as “inhibited”. Besides, the “effect on phosphorylation of IGFBP-3 by human recombinant TG2” value on TG2 [2] is recorded as “inhibited”.
